Measured values from patent publication US20230288411A1, “POLYPEPTIDE, MULTIMER, SOLID PHASE, MEASUREMENT METHOD FOR TEST SUBSTANCE, AND REAGENT KIT” (SYSMEX CORPORATION, priority 2020, published 2023).

Tests used:
L-biotin-labeled albumin = assay: SPR (Biacore T200) binding evaluation to L-biotin-labeled albumin; parameters: species or system bovine; settings: analyte flowed at 30 μL/min up to 100 nM, single cycle method, albumin immobilized on sensor chip
Experimental: (§1) A binding ability of D-streptavidin obtained in Example 1 to D-biotin as a natural form and L-biotin as an optical isomer of D-biotin was evaluated by an intermolecular interaction analyzer (Biacore T200) using SPR as a measurement principle.
Similarly, L-biotin-labeled albumin was prepared using L-biotin-AC5-OSu [see (Amidation of L-biotin) described in Example 3 above].
Bovine serum albumin was immobilized on flow cells 1 and 3 of a CMS sensor chip (manufactured by Cytiva) of a Biacore T200 system at a target level of 400 RU by an amine coupling method with an amine coupling kit (Cytiva). Further, L-biotin-labeled albumin and D-biotin-labeled albumin were immobilized at a target level of 400 RU to flow cells 2 and 4, respectively, similarly by an amine coupling method. Blocking was performed in each flow cell with 1 M ethanolamine solution, pH 8.5 (manufactured by Cytiva). […]
(§2) Using HBS-EP+(manufactured by Cytiva) as a running buffer, the prepared D-tamavidin (trademark) 2 was flowed into each flow cell at a flow rate of 30 μL/min in the range of 100 pM to 100 nM by a single cycle method, and binding and dissociation to D-biotin or L-biotin was evaluated by Biacore T200 Evaluation Software (manufactured by Cytiva).

D-biotin-labeled albumin = assay: SPR (Biacore T200) binding evaluation to D-biotin-labeled albumin; parameters: species or system bovine; settings: analyte flowed at 30 μL/min up to 100 nM, single cycle method, albumin immobilized on sensor chip
Experimental: as §1
An N,N-dimethylformamide solution (16.3 μL) containing 10 mg/mL D-biotin-AC5-OSu (manufactured by DOJINDO LABORATORIES) was added to 2.8 mL of 50 mg/mL bovine serum albumin/0.1 M phosphate buffer solution (pH 7.5), and the mixture was stirred, then allowed to stand at 35° C. for 1 hour. Thereafter, desalting was performed by PD-10 (17085101, manufactured by Cytiva) equilibrated with a 0.1 M phosphate buffer (pH 7.5), and D-biotin-labeled albumin was recovered. The number of labeled D-biotin per molecule of albumin by HABA method was 0.4.
Bovine serum albumin was immobilized on flow cells 1 and 3 of a CMS sensor chip (manufactured by Cytiva) of a Biacore T200 system at a target level of 400 RU by an amine coupling method with an amine coupling kit (Cytiva). […]
as §2

D-streptavidin: tetrameric polypeptide of 13th to 139th amino acids of SEQ ID NO: 1 composed of D-amino acid residues
binding to L-biotin-labeled albumin (SPR sensorgram) (L-biotin-labeled albumin): very strongly bound
binding to D-biotin-labeled albumin (SPR sensorgram) (D-biotin-labeled albumin): not substantially bound

natural core streptavidin: commercially available tetrameric natural core streptavidin (manufactured by Roche) [reference compound]
binding to D-biotin-labeled albumin (SPR sensorgram) (D-biotin-labeled albumin): very strongly bound
